What follows are compounds tested on SH-SY5Y (assay: Neuroprotective activity against rotenone-induced cytotoxicity in human SH-SY5Y cells assessed as increase in cell viability at 1 to 20 uM incubated for 24 hrs by MTT assay relative to control). Conditions: dose 1-20 µM.
Type: functional
In the case of COc1cc(/C=C/C(=O)N2CCCCC2)cc(OC)c1OC(=O)c1ccccn1, the Activity is reported as over 80%. COc1cc(CCC(=O)Nc2nc3ccccc3s2)cc(OC)c1OC(=O)C1CCCN1C(=O)OC(C)(C)C (stereo unspecified) was tested, and the Activity was over 80%. COc1cc(CCC(=O)N2CCCCC2)cc(OC)c1OC(=O)C1CCCN1C(=O)OC(C)(C)C (stereo unspecified) was tested, and the Activity was over 80%. With COc1ccc(N2CCN(C(=O)CCc3cc(OC)c(OC(=O)c4ccccn4)c(OC)c3)CC2)cc1 the Activity was over 80%. COc1cc(CCC(=O)NCc2ccc3c(c2)OCO3)cc(OC)c1OC(=O)c1ccccn1 gave an Activity of over 80%. Compound COc1cc(CCC(=O)N2CCN(c3ccccc3)CC2)cc(OC)c1OC(=O)c1ccccn1 has an Activity of over 80%.

Reference: ChEMBL document CHEMBL6177948, “Discovery of potential Leonurine-based therapeutic lead MJ210 attenuates Parkinson's disease pathogenesis via NF-κB and MAPK pathways: Mechanistic insights from in vitro and in vivo rotenone models” (Eur J Med Chem, 2025)
